The values below come from patent US6794386B2, “β-amino acid compounds as integrin antagonists” (Bayer Aktiengesellschaft, priority 2000, dated 2004).

For this assay, the target named is T1, VLA-4 (Homo sapiens, UniProt P05556+P13612).
T1 construct: host or cells: Jurkat clone E6-1
The assay is described as follows: Adhesion of Jurkat cells to immobilized VCAM-1 (domains 1-3). In kind it is cell-based. Also on record: scale not given here. Particulars: adhesion of CFSE-labeled Jurkat cells to recombinant human VCAM-1 (domains 1-3) coated plates, compounds as yielded by solid phase synthesis, purity about 40-90%; for pIC50: read-out: IC50. The essentials:
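CFSE-labelled Jurkat E6-1 cells in Tris buffer pH 7.4 with 2 mM MnCl2 were added to wells coated with insect-cell-expressed human VCAM-1 domains 1-3 (0.5 μg/ml coating solution); labelled cells were incubated for 30 min at 37 °C with the VLA-4 inhibitor.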

pIC50: −log10 of the molar value. Like-named read-outs stand apart in the source and are kept apart here.

T1 sequence (P13612 34-1032): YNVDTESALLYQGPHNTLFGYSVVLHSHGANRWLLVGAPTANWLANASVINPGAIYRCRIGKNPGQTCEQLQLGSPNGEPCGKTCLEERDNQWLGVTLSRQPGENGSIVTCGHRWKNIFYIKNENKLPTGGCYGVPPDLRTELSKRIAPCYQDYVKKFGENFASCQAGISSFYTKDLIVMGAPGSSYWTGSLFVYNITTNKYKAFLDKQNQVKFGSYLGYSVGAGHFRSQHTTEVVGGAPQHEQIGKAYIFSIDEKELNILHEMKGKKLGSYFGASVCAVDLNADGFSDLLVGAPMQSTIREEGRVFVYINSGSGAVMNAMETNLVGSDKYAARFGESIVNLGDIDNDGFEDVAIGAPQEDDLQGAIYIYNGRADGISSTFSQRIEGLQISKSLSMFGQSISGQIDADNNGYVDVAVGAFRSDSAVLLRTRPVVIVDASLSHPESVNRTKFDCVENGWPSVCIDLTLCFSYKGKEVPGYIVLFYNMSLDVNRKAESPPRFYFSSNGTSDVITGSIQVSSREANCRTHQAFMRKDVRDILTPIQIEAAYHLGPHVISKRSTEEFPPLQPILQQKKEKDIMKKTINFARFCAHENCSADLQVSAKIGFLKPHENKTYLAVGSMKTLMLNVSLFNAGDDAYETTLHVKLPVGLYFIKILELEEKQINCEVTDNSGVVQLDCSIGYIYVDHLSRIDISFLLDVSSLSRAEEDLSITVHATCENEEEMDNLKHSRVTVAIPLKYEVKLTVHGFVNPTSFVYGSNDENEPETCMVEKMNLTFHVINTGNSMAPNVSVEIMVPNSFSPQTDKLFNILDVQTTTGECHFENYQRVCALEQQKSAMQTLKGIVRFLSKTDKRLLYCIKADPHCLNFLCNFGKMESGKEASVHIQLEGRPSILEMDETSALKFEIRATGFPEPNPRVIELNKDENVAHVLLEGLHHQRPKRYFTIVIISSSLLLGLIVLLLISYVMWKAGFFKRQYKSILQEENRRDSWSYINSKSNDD
T1 sequence (P05556 21-798): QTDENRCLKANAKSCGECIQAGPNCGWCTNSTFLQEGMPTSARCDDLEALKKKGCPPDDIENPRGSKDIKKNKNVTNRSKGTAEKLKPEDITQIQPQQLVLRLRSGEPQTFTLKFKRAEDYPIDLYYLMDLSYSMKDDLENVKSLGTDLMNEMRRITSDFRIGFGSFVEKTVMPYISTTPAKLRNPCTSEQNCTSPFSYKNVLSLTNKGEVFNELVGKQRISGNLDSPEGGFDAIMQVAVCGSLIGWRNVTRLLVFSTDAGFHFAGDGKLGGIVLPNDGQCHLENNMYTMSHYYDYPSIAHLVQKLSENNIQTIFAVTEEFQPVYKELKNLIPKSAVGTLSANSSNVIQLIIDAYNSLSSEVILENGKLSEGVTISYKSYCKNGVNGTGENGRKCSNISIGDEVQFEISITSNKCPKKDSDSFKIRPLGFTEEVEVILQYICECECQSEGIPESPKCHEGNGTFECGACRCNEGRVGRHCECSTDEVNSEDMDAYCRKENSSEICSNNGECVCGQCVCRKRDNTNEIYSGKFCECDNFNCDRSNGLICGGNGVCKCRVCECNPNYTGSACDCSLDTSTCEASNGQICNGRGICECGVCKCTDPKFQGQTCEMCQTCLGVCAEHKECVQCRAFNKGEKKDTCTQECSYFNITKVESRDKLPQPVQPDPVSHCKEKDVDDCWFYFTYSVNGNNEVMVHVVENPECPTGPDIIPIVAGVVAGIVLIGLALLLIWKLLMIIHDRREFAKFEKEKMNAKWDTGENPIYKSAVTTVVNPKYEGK

Take `Cc1ccc(-c2ccc(C[C@H](NC(=O)C3CCCN(c4ncnc(N5CCCCC5)c4F)C3)C(=O)O)cc2)cc1` (stereo partly drawn) [Example 2.6]: the IC50 result is recorded as “C-D”.

For the compound `Cc1ccc(-c2ccc(C[C@H](NC(=O)C3CCCN(c4ncnc(N5CCOCC5)c4F)C3)C(=O)O)cc2)cc1` (stereo partly drawn) [Example 2.7], the IC50 result was “C-D”. On the same count and under the same terms, in the case of `Cc1ccc(-c2ccc(C[C@H](NC(=O)C3CCCN(c4ncnc(N(C)Cc5ccccc5)c4F)C3)C(=O)O)cc2)cc1` (stereo partly drawn) [Example 2.8] it was “C-D”. Same read-out and setting: for `Cc1ccc(-c2ccc(C[C@H](NC(=O)C3CCCN(c4ncnc(N5CCNCC5)c4F)C3)C(=O)O)cc2)cc1` (stereo partly drawn) [Example 2.9] the value was “B-C”; for `CCCNc1ncnc(N2CCCC(C(=O)N[C@@H](Cc3ccc(-c4ccc(C)cc4)cc3)C(=O)O)C2)c1F` (stereo partly drawn) [Example 2.10], “C-D”; for `Cc1ccc(-c2ccc(C[C@H](NC(=O)C3CCCN(c4ncnc(NC5Cc6ccccc6C5)c4F)C3)C(=O)O)cc2)cc1` (stereo partly drawn) [Example 2.11], “C-D”. Turning to `Cc1ccc(-c2ccc(C[C@H](NC(=O)C3CCCN(c4ncnc(NCCN5CCCC5)c4F)C3)C(=O)O)cc2)cc1` (stereo partly drawn) [Example 2.12], the IC50 result is “C-D”.

Consider `CCCCN(C)c1ncnc(N2CCCC(C(=O)N[C@@H](Cc3ccc(-c4ccc(C)cc4)cc3)C(=O)O)C2)c1F` (stereo partly drawn) [Example 2.13], for which the IC50 result is listed as “C-D”.

With `COc1ccc(-c2ccc(C[C@H](NC(=O)C3CCCN(c4ncnc(NCc5ccccn5)c4F)C3)C(=O)O)cc2)cc1` (stereo partly drawn) [Example 2.14], the IC50 entry was “C-D”. On to `COc1ccc(-c2ccc(C[C@H](NC(=O)C3CCCN(c4ncnc(NC5CCCCC5)c4F)C3)C(=O)O)cc2)cc1` (stereo partly drawn) [Example 2.15], for which the IC50 result is “C-D”. The same measure, in the same setting: for `COc1ccc(-c2ccc(C[C@H](NC(=O)C3CCCN(c4ncnc(N5CCCCC5)c4F)C3)C(=O)O)cc2)cc1` (stereo partly drawn) [Example 2.16] the value was “C-D”. Same read-out and setting: in the case of `COc1ccc(-c2ccc(C[C@H](NC(=O)C3CCCN(c4ncnc(N5CCOCC5)c4F)C3)C(=O)O)cc2)cc1` (stereo partly drawn) [Example 2.17] it was “C-D”; in that of `COc1ccc(-c2ccc(C[C@H](NC(=O)C3CCCN(c4ncnc(N(C)Cc5ccccc5)c4F)C3)C(=O)O)cc2)cc1` (stereo partly drawn) [Example 2.18], “C-D”; in that of `COc1ccc(-c2ccc(C[C@H](NC(=O)C3CCCN(c4ncnc(N5CCNCC5)c4F)C3)C(=O)O)cc2)cc1` (stereo partly drawn) [Example 2.19], “C-D”. On the same count and under the same terms, in the case of `CCCNc1ncnc(N2CCCC(C(=O)N[C@@H](Cc3ccc(-c4ccc(OC)cc4)cc3)C(=O)O)C2)c1F` (stereo partly drawn) [Example 2.20] it was “C-D”; in that of `COc1ccc(-c2ccc(C[C@H](NC(=O)C3CCCN(c4ncnc(NC5Cc6ccccc6C5)c4F)C3)C(=O)O)cc2)cc1` (stereo partly drawn) [Example 2.21], “C-D”. For `COc1ccc(-c2ccc(C[C@H](NC(=O)C3CCCN(c4ncnc(NCCN5CCCC5)c4F)C3)C(=O)O)cc2)cc1` (stereo partly drawn) [Example 2.22], the IC50 result is listed as “C-D”. On the same count and under the same terms, for `CCCCN(C)c1ncnc(N2CCCC(C(=O)N[C@@H](Cc3ccc(-c4ccc(OC)cc4)cc3)C(=O)O)C2)c1F` (stereo partly drawn) [Example 2.23] the value was “C-D”; for `Cc1ccccc1-c1ccc(C[C@H](NC(=O)C2CCCN(c3ncnc(NCc4ccccn4)c3F)C2)C(=O)O)cc1` (stereo partly drawn) [Example 2.24], “C-D”. The same measure, in the same setting: in the case of `Cc1ccccc1-c1ccc(C[C@H](NC(=O)C2CCCN(c3ncnc(NC4CCCCC4)c3F)C2)C(=O)O)cc1` (stereo partly drawn) [Example 2.25] it was “C-D”; in that of `Cc1ccccc1-c1ccc(C[C@H](NC(=O)C2CCCN(c3ncnc(N4CCCCC4)c3F)C2)C(=O)O)cc1` (stereo partly drawn) [Example 2.26], “C-D”; in that of `Cc1ccccc1-c1ccc(C[C@H](NC(=O)C2CCCN(c3ncnc(N4CCOCC4)c3F)C2)C(=O)O)cc1` (stereo partly drawn) [Example 2.27], “C-D”. On the same count and under the same terms, for `Cc1ccccc1-c1ccc(C[C@H](NC(=O)C2CCCN(c3ncnc(N(C)Cc4ccccc4)c3F)C2)C(=O)O)cc1` (stereo partly drawn) [Example 2.28] the value was “C-D”. In the case of `Cc1ccccc1-c1ccc(C[C@H](NC(=O)C2CCCN(c3ncnc(N4CCNCC4)c3F)C2)C(=O)O)cc1` (stereo partly drawn) [Example 2.29], the IC50 result is “C-D”. One may read the pIC50 as the negative decadic logarithm of the IC50, by convention in mol/L. For `CCCNc1ncnc(N2CCCC(C(=O)N[C@@H](Cc3ccc(-c4ccccc4C)cc3)C(=O)O)C2)c1F` (stereo partly drawn) [Example 2.30], the pIC50 was 5.00 to 5.70. Take `Cc1ccccc1-c1ccc(C[C@H](NC(=O)C2CCCN(c3ncnc(NC4Cc5ccccc5C4)c3F)C2)C(=O)O)cc1` (stereo partly drawn) [Example 2.31]: the IC50 result is listed as “C-D”. The same measure, in the same setting: for `Cc1ccccc1-c1ccc(C[C@H](NC(=O)C2CCCN(c3ncnc(NCCN4CCCC4)c3F)C2)C(=O)O)cc1` (stereo partly drawn) [Example 2.32] the value was “C-D”; for `CCCCN(C)c1ncnc(N2CCCC(C(=O)N[C@@H](Cc3ccc(-c4ccccc4C)cc3)C(=O)O)C2)c1F` (stereo partly drawn) [Example 2.33], “C-D”. With `O=C(N[C@@H](Cc1ccc(-c2cc(Cl)ccc2Cl)cc1)C(=O)O)C1CCCN(c2ncnc(NC3CCCCC3)c2F)C1` (stereo partly drawn) [Example 2.34], the pIC50 was 5.00 to 5.70.

As to `O=C(N[C@@H](Cc1ccc(-c2cc(Cl)ccc2Cl)cc1)C(=O)O)C1CCCN(c2ncnc(N3CCCCC3)c2F)C1` (stereo partly drawn) [Example 2.35], the IC50 result was “C-D”. As to `CN(Cc1ccccc1)c1ncnc(N2CCCC(C(=O)N[C@@H](Cc3ccc(-c4cc(Cl)ccc4Cl)cc3)C(=O)O)C2)c1F` (stereo partly drawn) [Example 2.36], the IC50 entry is recorded as “C-D”. Same read-out and setting: for `CCCNc1ncnc(N2CCCC(C(=O)N[C@@H](Cc3ccc(-c4cc(Cl)ccc4Cl)cc3)C(=O)O)C2)c1F` (stereo partly drawn) [Example 2.37] the value was “C-D”; for `O=C(N[C@@H](Cc1ccc(-c2cc(Cl)ccc2Cl)cc1)C(=O)O)C1CCCN(c2ncnc(NC3Cc4ccccc4C3)c2F)C1` (stereo partly drawn) [Example 2.38], “C-D”. Turning to `O=C(N[C@@H](Cc1ccc(-c2cc(Cl)ccc2Cl)cc1)C(=O)O)C1CCCN(c2ncnc(NCCN3CCCC3)c2F)C1` (stereo partly drawn) [Example 2.39], the pIC50 is 5.70 to 6.30. As to `CCCCN(C)c1ncnc(N2CCCC(C(=O)N[C@@H](Cc3ccc(-c4cc(Cl)ccc4Cl)cc3)C(=O)O)C2)c1F` (stereo partly drawn) [Example 2.40], the IC50 result is “A-B”.

For `O=C(N[C@@H](Cc1ccc(-c2ccc(Cl)c(Cl)c2)cc1)C(=O)O)C1CCCN(c2ncnc(NCc3ccccn3)c2F)C1` (stereo partly drawn) [Example 2.41], the IC50 entry was “C-D”. On the same count and under the same terms, in the case of `O=C(N[C@@H](Cc1ccc(-c2ccc(Cl)c(Cl)c2)cc1)C(=O)O)C1CCCN(c2ncnc(NC3CCCCC3)c2F)C1` (stereo partly drawn) [Example 2.42] it was “C-D”; in that of `O=C(N[C@@H](Cc1ccc(-c2ccc(Cl)c(Cl)c2)cc1)C(=O)O)C1CCCN(c2ncnc(N3CCCCC3)c2F)C1` (stereo partly drawn) [Example 2.43], “C-D”. In the case of `O=C(N[C@@H](Cc1ccc(-c2ccc(Cl)c(Cl)c2)cc1)C(=O)O)C1CCCN(c2ncnc(N3CCOCC3)c2F)C1` (stereo partly drawn) [Example 2.44], the IC50 entry was “C-D”. Still for that read-out and setting: in the case of `CN(Cc1ccccc1)c1ncnc(N2CCCC(C(=O)N[C@@H](Cc3ccc(-c4ccc(Cl)c(Cl)c4)cc3)C(=O)O)C2)c1F` (stereo partly drawn) [Example 2.45] it was “C-D”; in that of `O=C(N[C@@H](Cc1ccc(-c2ccc(Cl)c(Cl)c2)cc1)C(=O)O)C1CCCN(c2ncnc(N3CCNCC3)c2F)C1` (stereo partly drawn) [Example 2.46], “C-D”; in that of `CCCNc1ncnc(N2CCCC(C(=O)N[C@@H](Cc3ccc(-c4ccc(Cl)c(Cl)c4)cc3)C(=O)O)C2)c1F` (stereo partly drawn) [Example 2.47], “C-D”.
